Results as given in PubChem BioAssay AID2060618 (Molecular Pharmacology Branch, DTP, NCI, 2025).

System: 454973-116-R2-J3-PDC spheroids, percent test/control viability
Assay: Anticancer human tumor 454973-116-R2-J3-PDC patient-derived pancreatic carcinoma cell line growth inhibition [CLK]
Details: spheroids with HUVEC and MSC; for IC50: curve of first compound; for viability, T/C: stronger effect = lower value
Method in brief: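 Multi-cell-type spheroids combined patient-derived tumor cells with HUVEC endothelial cells and human mesenchymal stem cells. Paired agents were dosed in half-log steps down from about clinical Cmax, or from 10 microM where Cmax was unknown.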

[1] = second compound 0.0316 µM, first compound 0.0316 µM
[2] = second compound 0.0316 µM, first compound 0.1 µM
[3] = second compound 0.0316 µM, first compound 0.316 µM
[4] = second compound 0.0316 µM, first compound 1 µM
[5] = second compound 0.1 µM, first compound 0.0316 µM
[6] = second compound 0.1 µM, first compound 0.1 µM
[7] = second compound 0.1 µM, first compound 0.316 µM
[8] = second compound 0.1 µM, first compound 1 µM
[9] = second compound 0.316 µM, first compound 0.0316 µM
[10] = second compound 0.316 µM, first compound 0.1 µM
[11] = second compound 0.316 µM, first compound 0.316 µM
[12] = second compound 0.316 µM, first compound 1 µM
[13] = second compound 1 µM, first compound 0.0316 µM
[14] = second compound 1 µM, first compound 0.1 µM
[15] = second compound 1 µM, first compound 0.316 µM
[16] = second compound 1 µM, first compound 1 µM
[17] = second compound 3.16 µM, first compound 0.0316 µM
[18] = second compound 3.16 µM, first compound 0.1 µM
[19] = second compound 3.16 µM, first compound 0.316 µM
[20] = second compound 3.16 µM, first compound 1 µM
[21] = second compound 10 µM, first compound 0.0316 µM
[22] = second compound 10 µM, first compound 0.1 µM
[23] = second compound 10 µM, first compound 0.316 µM
[24] = second compound 10 µM, first compound 1 µM
[25] = second compound 0.0316 µM, first compound 0.00316 µM
[26] = second compound 0.0316 µM, first compound 0.01 µM
[27] = second compound 0.1 µM, first compound 0.00316 µM
[28] = second compound 0.1 µM, first compound 0.01 µM
[29] = second compound 0.316 µM, first compound 0.00316 µM
[30] = second compound 0.316 µM, first compound 0.01 µM
[31] = second compound 1 µM, first compound 0.00316 µM
[32] = second compound 1 µM, first compound 0.01 µM
[33] = second compound 3.16 µM, first compound 0.00316 µM
[34] = second compound 3.16 µM, first compound 0.01 µM
[35] = second compound 10 µM, first compound 0.00316 µM
[36] = second compound 10 µM, first compound 0.01 µM
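Also: spheroids exposed to compounds for 7 days before readout.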

`CC(Nc1ccc2c(c1)OCCn1cc(N3C(=O)OCC3C(F)F)nc1-2)C(N)=O` (stereo unspecified) + CNC(=O)c1ccc(Nc2nc(OC3CCCC3)c3c(-c4ccc5nc(C)oc5c4)c[nH]c3n2)c(OC)c1 was tested, and the IC50 (second compound 0.0316 µM) was > 10000 nM, the IC50 (second compound 0.1 µM) was 5040 nM and the IC50 (second compound 0.316 µM) was 467 nM. For the same molecule, the IC50 (second compound 1 µM) was < 31.6 nM, the IC50 (second compound 3.16 µM) was < 31.6 nM and the IC50 (second compound 10 µM) was < 31.6 nM. It also gave a viability, T/C [1] of 98.4%, a viability, T/C [2] of 79.5% and a viability, T/C [3] of 80%. For the same molecule, the viability, T/C [4] was 70.7%, the viability, T/C (second compound 0.0316 µM, first compound 3.16 µM) was 67.9% and the viability, T/C (second compound 0.0316 µM, first compound 10 µM) was 46%. For the same molecule, the viability, T/C [5] was 96.8%, the viability, T/C [6] was 86.4% and the viability, T/C [7] was 74.9%. It also gave a viability, T/C [8] of 59%, a viability, T/C (second compound 0.1 µM, first compound 3.16 µM) of 58.6% and a viability, T/C (second compound 0.1 µM, first compound 10 µM) of 43%. It also gave a viability, T/C [9] of 54.8%, a viability, T/C [10] of 54.4% and a viability, T/C [11] of 55.6%. For the same molecule, the viability, T/C [12] was 41.2%, the viability, T/C (second compound 0.316 µM, first compound 3.16 µM) was 36.8% and the viability, T/C (second compound 0.316 µM, first compound 10 µM) was 30.3%. It also gave a viability, T/C [13] of 31.1%, a viability, T/C [14] of 26.9% and a viability, T/C [15] of 22.5%. It also gave a viability, T/C [16] of 19.7%, a viability, T/C (second compound 1 µM, first compound 3.16 µM) of 16.9% and a viability, T/C (second compound 1 µM, first compound 10 µM) of 13.5%. For the same molecule, the viability, T/C [17] was 23.5%, the viability, T/C [18] was 26.3% and the viability, T/C [19] was 23.5%. It also gave a viability, T/C [20] of 21.5%, a viability, T/C (second compound 3.16 µM, first compound 3.16 µM) of 14.7% and a viability, T/C (second compound 3.16 µM, first compound 10 µM) of 13.5%. It also gave a viability, T/C [21] of 24.3%, a viability, T/C [22] of 22.8% and a viability, T/C [23] of 21.1%. It also gave a viability, T/C [24] of 19.7%, a viability, T/C (second compound 10 µM, first compound 3.16 µM) of 13.3% and a viability, T/C (second compound 10 µM, first compound 10 µM) of 11.1%.
`CCN1CCN(Cc2ccc(Nc3ncc(F)c(-c4cc(F)c5nc(C)n(C(C)C)c5c4)n3)nc2)CC1` + CNC(=O)c1ccc(Nc2nc(OC3CCCC3)c3c(-c4ccc5nc(C)oc5c4)c[nH]c3n2)c(OC)c1 was tested, and the IC50 (second compound 0.0316 µM) was > 1000 nM, the IC50 (second compound 0.1 µM) was > 1000 nM and the IC50 (second compound 0.316 µM) was < 3.16 nM. For the same molecule, the IC50 (second compound 1 µM) was < 3.16 nM, the IC50 (second compound 3.16 µM) was < 3.16 nM and the IC50 (second compound 10 µM) was < 3.16 nM. It also gave a viability, T/C [25] of 103%, a viability, T/C [26] of 90.4% and a viability, T/C [1] of 82.8%. It also gave a viability, T/C [2] of 69.1%, a viability, T/C [3] of 67.2% and a viability, T/C [4] of 60.4%. For the same molecule, the viability, T/C [27] was 96.8%, the viability, T/C [28] was 84.7% and the viability, T/C [5] was 79.2%. For the same molecule, the viability, T/C [6] was 67.2%, the viability, T/C [7] was 63.4% and the viability, T/C [8] was 56.2%. The viability, T/C [29] was 44.8%, the viability, T/C [30] was 44.4% and the viability, T/C [9] was 54.5%. For the same molecule, the viability, T/C [10] was 55.6%, the viability, T/C [11] was 52.5% and the viability, T/C [12] was 63.6%. The viability, T/C [31] was 34.4%, the viability, T/C [32] was 34.1% and the viability, T/C [13] was 39%. It also gave a viability, T/C [14] of 43%, a viability, T/C [15] of 43.3% and a viability, T/C [16] of 47%. The viability, T/C [33] was 30.6%, the viability, T/C [34] was 35.5% and the viability, T/C [17] was 37.2%. It also gave a viability, T/C [18] of 39.1%, a viability, T/C [19] of 38.5% and a viability, T/C [20] of 46.2%. For the same molecule, the viability, T/C [35] was 27.5%, the viability, T/C [36] was 27% and the viability, T/C [21] was 33.5%. The viability, T/C [22] was 37.8%, the viability, T/C [23] was 41.8% and the viability, T/C [24] was 47.3%.
`COc1c(OCCCN2CCOCC2)ccc2c3n(c(=NC(=O)c4cnc(N)nc4)nc12)CCN3` + CNC(=O)c1ccc(Nc2nc(OC3CCCC3)c3c(-c4ccc5nc(C)oc5c4)c[nH]c3n2)c(OC)c1 was tested, and the IC50 (second compound 0.0316 µM) was 72.2 nM, the IC50 (second compound 0.1 µM) was 66.9 nM and the IC50 (second compound 0.316 µM) was 17.9 nM. The IC50 (second compound 1 µM) was < 3.16 nM, the IC50 (second compound 3.16 µM) was < 3.16 nM and the IC50 (second compound 10 µM) was < 3.16 nM. For the same molecule, the viability, T/C [25] was 99.8%, the viability, T/C [26] was 93% and the viability, T/C [1] was 71.3%. For the same molecule, the viability, T/C [2] was 39%, the viability, T/C [3] was 24.4% and the viability, T/C [4] was 8.47%. The viability, T/C [27] was 96.2%, the viability, T/C [28] was 79.6% and the viability, T/C [5] was 70.5%. The viability, T/C [6] was 37.5%, the viability, T/C [7] was 24.2% and the viability, T/C [8] was 8.81%. It also gave a viability, T/C [29] of 56.4%, a viability, T/C [30] of 54.7% and a viability, T/C [9] of 47%. For the same molecule, the viability, T/C [10] was 26.1%, the viability, T/C [11] was 17.5% and the viability, T/C [12] was 7.41%. The viability, T/C [31] was 34.2%, the viability, T/C [32] was 30.5% and the viability, T/C [13] was 22.2%. The viability, T/C [14] was 13.1%, the viability, T/C [15] was 8.12% and the viability, T/C [16] was 4.63%. For the same molecule, the viability, T/C [33] was 25.7%, the viability, T/C [34] was 24.6% and the viability, T/C [17] was 21.1%. It also gave a viability, T/C [18] of 14.8%, a viability, T/C [19] of 7.11% and a viability, T/C [20] of 5.46%. The viability, T/C [35] was 24.2%, the viability, T/C [36] was 22% and the viability, T/C [21] was 17.8%. For the same molecule, the viability, T/C [22] was 13.3%, the viability, T/C [23] was 8.89% and the viability, T/C [24] was 3.02%.
